Like-named read-outs stand apart in the source and are kept apart here.
Legend:
Factor XIa = Factor XIa (Homo sapiens (Human), UniProt P03951); experiment: Factor XIa inhibition assay (FLINT) utilizing a fluorophore-quencher pair peptide substrate; type: biochemical; settings: 30 min preincubation, kinetic reads over 30 min, read-out: FXIa Kin Inh IC50
How it was run: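 FXIa ([…]) preincubated 30 min with compound (11-point 3-fold dilution, top 100 nM, 2% DMSO), then 15 μM quenched FXI Arg146-based peptide added; Tris pH 7.5, CaCl2, BSA, CHAPS. Fluorescence 485/520 nm read kinetically every 5 min over 30 min at RT; IC50 by 4-parameter fit.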

human plasma kallikrein = human plasma kallikrein (Homo sapiens (Human), UniProt P03952); experiment: Kallikrein inhibition assay (FLINT) utilizing a quenched AMC peptide substrate; type: biochemical; settings: 30 min preincubation, read-out: Kallikrein Kin Inh IC50
human plasma kallikrein, sequence (P03952 391-638): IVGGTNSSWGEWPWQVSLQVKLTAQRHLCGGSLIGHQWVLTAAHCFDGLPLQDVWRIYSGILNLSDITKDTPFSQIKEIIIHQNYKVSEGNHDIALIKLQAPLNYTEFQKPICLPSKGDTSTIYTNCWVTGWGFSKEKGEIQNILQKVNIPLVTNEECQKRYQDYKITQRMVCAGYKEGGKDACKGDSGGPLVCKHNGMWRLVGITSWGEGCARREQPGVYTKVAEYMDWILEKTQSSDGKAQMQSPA
human plasma kallikrein, sequence (P03952 20-390 partner): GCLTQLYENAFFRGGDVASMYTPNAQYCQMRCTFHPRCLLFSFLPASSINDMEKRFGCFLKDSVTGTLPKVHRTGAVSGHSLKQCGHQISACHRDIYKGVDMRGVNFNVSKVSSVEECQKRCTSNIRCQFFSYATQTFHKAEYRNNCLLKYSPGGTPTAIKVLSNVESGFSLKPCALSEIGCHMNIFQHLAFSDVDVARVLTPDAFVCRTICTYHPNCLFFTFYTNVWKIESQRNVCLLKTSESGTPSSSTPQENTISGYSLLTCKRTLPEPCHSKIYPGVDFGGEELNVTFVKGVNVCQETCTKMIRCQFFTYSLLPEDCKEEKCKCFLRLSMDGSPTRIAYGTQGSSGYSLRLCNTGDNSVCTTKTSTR
How it was run: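 Fluorogenic Z-Gly-Pro-Arg-AMC cleavage (50 μM substrate, 2 nM kallikrein, Tris pH 7.5, CaCl2, BSA, CHAPS, 2% DMSO) read kinetically at 340/440 nm for 30 min after 30-min compound pre-incubation. Compounds in 11-point 3-fold series from 1 μM; percent inhibition fitted to four-parameter equation for IC50.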

[1] = 5Fam-KLTRAETV-K5Tamra substrate 15 μM
[2] = kinetic reads over 30 min, Z-Gly-Pro-Arg-AMC substrate 50 μM
[3] = 5Fam-[…]-K5Tamra substrate 15 μM

Factor XIa, sequence (P03951 388-625): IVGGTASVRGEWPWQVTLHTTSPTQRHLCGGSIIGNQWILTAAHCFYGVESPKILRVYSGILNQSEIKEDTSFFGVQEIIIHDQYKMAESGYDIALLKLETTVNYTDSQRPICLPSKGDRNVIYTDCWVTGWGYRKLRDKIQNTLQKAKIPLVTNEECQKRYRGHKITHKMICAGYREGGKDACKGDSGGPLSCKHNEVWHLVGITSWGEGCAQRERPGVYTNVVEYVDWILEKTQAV
Factor XIa, sequence (P03951 19-387 partner): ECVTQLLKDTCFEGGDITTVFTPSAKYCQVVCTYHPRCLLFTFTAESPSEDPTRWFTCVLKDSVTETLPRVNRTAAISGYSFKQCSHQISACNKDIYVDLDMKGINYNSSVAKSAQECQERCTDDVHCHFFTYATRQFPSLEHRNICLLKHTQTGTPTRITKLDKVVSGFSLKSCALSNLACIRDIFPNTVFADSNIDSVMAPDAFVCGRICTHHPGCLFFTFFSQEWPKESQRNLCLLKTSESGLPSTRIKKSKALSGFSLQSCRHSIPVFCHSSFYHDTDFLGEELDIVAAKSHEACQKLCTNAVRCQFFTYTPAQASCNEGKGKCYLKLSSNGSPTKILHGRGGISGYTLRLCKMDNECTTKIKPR

| IC50 (Factor XIa; [1]) [nM] | IC50 (human plasma kallikrein; [2]) [µM] | IC50 (Factor XIa; [3]) [nM] | IC50 (human plasma kallikrein; μM, kinetic reads) [µM] | Compound |
| --- | --- | --- | --- | --- |
| 5.4 | 0.0026 | – | – | O=C1C=C(c2cc(Cl)ccc2-n2cnnn2)C[C@H]2CC[C@@H](c3ncc(-c4ccnc(NC56CC(C5)C6)c4F)[nH]3)N12 [Example 96, (3S,8aR)-3-(5-(2-(Bicyclo[1.1.1]pentan-1-ylamino)-3-fluoropyridin-4-yl)-1H-imidazol-2-yl)-7-(5-chloro-2-(1H-tetrazol-1-yl)phenyl)-2,3,8,8a-tetrahydroindolizin-5(1H)-one] |
| 0.6 | 0.0034 | – | – | NC(=O)c1ccc(-c2cnc([C@@H]3CC[C@@H]4CC(c5c(-n6cnnn6)ccc(Cl)c5F)=CC(=O)N43)[nH]2)c(F)c1 [Example 196, 4-(2-((3S,8aR)-7-(3-chloro-2-fluoro-6-(1H-tetrazol-1-yl)phenyl)-5-oxo-1,2,3,5,8,8a-hexahydroindolizin-3-yl)-1H-imidazol-4-yl)-3-fluorobenzamide] |
| 0.6 | 0.0066 | – | – | CS(=O)(=O)Nc1cc(-c2[nH]c(C3CCC4CC(c5c(-n6cnnn6)ccc(Cl)c5F)=CC(=O)N43)nc2F)ccn1 (stereo not drawn) [Example 6, N-[4-[2-[7-[3-Chloro-2-fluoro-6-(tetrazol-1-yl)phenyl]-5-oxo-2,3,8,8a-tetrahydro-1H-indolizin-3-yl]-4-fluoro-1H-imidazol-5-yl]-2-pyridyl]methanesulfonamide] |
| 4.1 | 0.0317 | – | – | O=C1C=C(c2c(-n3cnnn3)ccc(Cl)c2F)C[C@H]2CC[C@@H](c3ncc(-c4ccnc([C@@H](O)C(F)(F)F)c4F)[nH]3)N12 (single isomer, unassigned) [Example 171, (3*S,8a*R)-7-(3-chloro-2-fluoro-6-(1H-tetrazol-1-yl)phenyl)-3-(5-(3-fluoro-2-((*R)-2,2,2-trifluoro-1-hydroxyethyl)pyridin-4-yl)-1H-imidazol-2-yl)-2,3,8,8a-tetrahydroindolizin-5(1H)-one] |
| 0.4 | 0.001 | – | – | CNc1n[nH]c2cc(-c3cnc([C@@H]4CC[C@H]5CC(c6c(-n7cnnn7)ccc(Cl)c6F)=CC(=O)N54)[nH]3)ccc12 [Example 265, (3S,8aS)-7-[3-Chloro-2-fluoro-6-(tetrazol-1-yl)phenyl]-3-[5-[3-(methylamino)-1H-indazol-6-yl]-1H-imidazol-2-yl]-2,3,8,8a-tetrahydro-1H-indolizin-5-one] |
| – | 0.0049 | 2.6 | – | O=C1C=C(c2c(-n3cnnn3)ccc(Cl)c2F)C[C@@H]2CC[C@@H](c3ncc(-c4ccnc(N[C@H]5CCOC5)c4F)[nH]3)N12 (single isomer, unassigned) [Example 74, (3S,8aS*)-7-(3-chloro-2-fluoro-6-(1H-tetrazol-1-yl)phenyl)-3-(5-(3-fluoro-2-(((S)-tetrahydrofuran-3-yl)amino)pyridin-4-yl)-1H-imidazol-2-yl)-2,3,8,8a-tetrahydroindolizin-5(1H)-one] |
| 0.3 | 0.0012 | – | – | Nc1cc(-c2[nH]c([C@@H]3CC[C@@H]4CC(c5c(-n6cnnn6)ccc(Cl)c5F)=CC(=O)N43)nc2Cl)ccn1 [Example 372, (3S,8aR)-3-(5-(2-aminopyridin-4-yl)-4-chloro-1H-imidazol-2-yl)-7-(3-chloro-2-fluoro-6-(1H-tetrazol-1-yl)phenyl)-2,3,8,8a-tetrahydroindolizin-5(1H)-one] |
| – | 0.0191 | 13.8 | – | O=C1C=C(c2c(-n3cnnn3)ccc(Cl)c2F)C[C@H]2CC[C@H](c3ncc(-c4ccnc(OC[C@@H]5COCCO5)c4F)[nH]3)N12 (relative stereo) [Example 156, (3*R,8aR)-3-(5-(2-(((S)-1,4-dioxan-2-yl)methoxy)-3-fluoropyridin-4-yl)-1H-imidazol-2-yl)-7-(3-chloro-2-fluoro-6-(1H-tetrazol-1-yl)phenyl)-2,3,8,8a-tetrahydroindolizin-5(1H)-one] |
| 0.6 | 0.0015 | – | – | NC(=O)c1ccc(-c2nc([C@@H]3CC[C@H]4CC(c5c(-n6cc(C(F)(F)F)nn6)ccc(Cl)c5F)=CC(=O)N43)[nH]c2Cl)s1 [Example 202, 5-(5-Chloro-2-((3S,8aS)-7-(3-chloro-2-fluoro-6-(4-(trifluoromethyl)-1H-1,2,3-triazol-1-yl)phenyl)-5-oxo-1,2,3,5,8,8a-hexahydroindolizin-3-yl)-1H-imidazol-4-yl)thiophene-2-carboxamide] |
| 91.7 | 0.867 | – | – | O=C1C=C(c2c(-n3cnnn3)ccc(Cl)c2F)C[C@H]2CCC(c3ncc(-c4n[nH]cc4Cl)[nH]3)N12 (stereo partly drawn) [Example 4, (8aR)-7-[3-Chloro-2-fluoro-6-(tetrazol-1-yl)phenyl]-3-[5-(4-chloro-1H-pyrazol-3-yl)-1H-imidazol-2-yl]-2,3,8,8a-tetrahydro-1H-indolizin-5-one] |
| – | 0.0332 | 3.9 | – | [2H]C1([2H])C[C@@H](c2ncc(-c3ccnc(CO)c3F)[nH]2)N2C(=O)C=C(c3c(-n4cnnn4)ccc(Cl)c3F)C([2H])([2H])[C@]21[2H] [Example 33, (3S,8aR)-7-(3-Chloro-2-fluoro-6-(1H-tetrazol-1-yl)phenyl)-3-(5-(3-fluoro-2-(hydroxymethyl)pyridin-4-yl)-1H-imidazol-2-yl)-2,3,8,8a-tetrahydroindolizin-5(1H)-one-1,1,8,8,8a-d5] |
| 3.7 | 0.0177 | – | – | O=C1C=C(c2c(-n3cnnn3)ccc(Cl)c2F)C[C@H]2CC[C@@H](c3ncc(-c4ccc5cc[nH]c5c4)[nH]3)N12 [Example 8] |
| 3.4 | 0.0459 | – | – | CC1CC2CC(c3c(-n4cnnn4)ccc(Cl)c3F)=CC(=O)N2C1c1ncc(-c2ccc(N)nc2F)[nH]1 (stereo not drawn) [Example 328, 3-(5-(6-Amino-2-fluoropyridin-3-yl)-1H-imidazol-2-yl)-7-(3-chloro-2-fluoro-6-(1H-tetrazol-1-yl)phenyl)-2-methyl-2,3,8,8a-tetrahydroindolizin-5(1H)-one] |
| 4.3 | 0.0166 | – | – | C[C@@H](C#N)c1nccc(-c2cnc([C@@H]3CCC4CC(c5c(-n6cnnn6)ccc(Cl)c5F)=CC(=O)N43)[nH]2)c1F (relative stereo) [Example 164, (2*R)-2-(4-(2-((3S)-7-(3-chloro-2-fluoro-6-(1H-tetrazol-1-yl)phenyl)-5-oxo-1,2,3,5,8,8a-hexahydroindolizin-3-yl)-1H-imidazol-5-yl)-3-fluoropyridin-2-yl)propanenitrile] |
| 46.5 | 0.0379 | – | – | NC(=O)c1ncc(-c2c[nH]c([C@@H]3CC[C@H]4CC(c5c(-n6cc(C(F)(F)F)nn6)ccc(Cl)c5F)=CC(=O)N43)n2)s1 (single isomer, unassigned) [Example 209] |
| – | 0.0129 | 10.9 | – | C[C@H](Oc1nccc(-c2cnc([C@@H]3CC[C@H]4CC(c5c(-n6cnnn6)ccc(Cl)c5F)=CC(=O)N43)[nH]2)c1F)c1nnco1 (relative stereo) [Example 127, (3S*,8aS*)-3-(5-(2-((S*)-1-(1,3,4-oxadiazol-2-yl)ethoxy)-3-fluoropyridin-4-yl)-1H-imidazol-2-yl)-7-(3-chloro-2-fluoro-6-(1H-tetrazol-1-yl)phenyl)-2,3,8,8a-tetrahydroindolizin-5(1H)-one] |
| 7.4 | 0.0288 | – | – | C[C@H](C#N)c1nccc(-c2cnc([C@@H]3CCC4CC(c5c(-n6cnnn6)ccc(Cl)c5F)=CC(=O)N43)[nH]2)c1F (relative stereo) [Example 163, (2*S)-2-(4-(2-((3S)-7-(3-chloro-2-fluoro-6-(1H-tetrazol-1-yl)phenyl)-5-oxo-1,2,3,5,8,8a-hexahydroindolizin-3-yl)-1H-imidazol-5-yl)-3-fluoropyridin-2-yl)propanenitrile] |
| 0.5 | 0.0064 | – | – | CC1C[C@@H](c2ncc(-c3ccc(N)nc3F)[nH]2)N2C(=O)C=C(c3c(-n4cnnn4)ccc(Cl)c3F)CC12 (stereo partly drawn) [Example 348, (3S)-3-(5-(6-Amino-2-fluoropyridin-3-yl)-1H-imidazol-2-yl)-7-(3-chloro-2-fluoro-6-(1H-tetrazol-1-yl)phenyl)-1-methyl-2,3,8,8a-tetrahydroindolizin-5(1H)-one] |
| – | 0.0177 | 3.1 | – | COC(=O)Nc1ccccc1-c1cnc([C@@H]2CC[C@@H]3CC(c4c(-n5cnnn5)ccc(Cl)c4F)=CC(=O)N32)[nH]1 (relative stereo) [Example 301, Methyl 2-(2-((3S,8aR*)-7-(3-chloro-2-fluoro-6-(1H-tetrazol-1-yl)phenyl)-5-oxo-1,2,3,5,8,8a-hexahydroindolizin-3-yl)-1H-imidazol-4-yl)phenylcarbamate] |
| 79.7 | – | – | 1.2 | CS(=O)(=O)Nc1ccccc1-c1c[nH]c([C@@H]2CCC3CC(c4c(-n5cnnn5)ccc(Cl)c4F)=CC(=O)N32)n1 (stereo partly drawn) [Example 293, N-(2-(2-((3S)-7-(3-Chloro-2-fluoro-6-(1H-tetrazol-1-yl)phenyl)-5-oxo-1,2,3,5,8,8a-hexahydroindolizin-3-yl)-1H-imidazol-4-yl)phenyl)methanesulfonamide] |
| 4.8 | 0.0063 | – | – | CCN(CCO)c1nccc(-c2cnc([C@@H]3CC[C@@H]4CC(c5c(-n6cnnn6)ccc(Cl)c5F)=CC(=O)N43)[nH]2)c1F (single isomer, unassigned) [Example 136, (3S,8a*R)-7-(3-chloro-2-fluoro-6-(1H-tetrazol-1-yl)phenyl)-3-(5-(2-(ethyl(2-hydroxyethyl)amino)-3-fluoropyridin-4-yl)-1H-imidazol-2-yl)-2,3,8,8a-tetrahydroindolizin-5(1H)-one] |

Reference: US20230295157A1, “3-(1H-IMIDAZOL-2-YL)-2,3,8,8A-TETRAHYDROINDOLIZIN-5(1H)-ONE DERIVATIVES USEFUL AS FACTOR XIA INHIBITORS” (JANSSEN PHARMACEUTICA NV, priority 2020, published 2023)
